The record followed here is patent US11718622B2, “Heterocyclic adenosine receptor antagonists” (Exelixis, Inc., priority 2020, dated 2023).

Each structure is given as a SMILES string.

Experiment [1] has as its target Adenosine A2a (ADORA2A) receptor (Homo sapiens (Human), UniProt P29274). The experiment in a line: ADORA2A Receptor Binding Assay. Conditions: radioligand binding, membrane stock. An outline of the steps: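 Test compounds incubated with A2a receptor membranes and a ³H-labelled radioligand for 2 hours at room temperature, then filtered through PEI-presoaked GF/C plates and washed. Filter-bound ³H counted by scintillation; % inhibition calculated from background-subtracted signal relative to high control.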

Experiment [2] addresses Adenosine A2B (ADORA2B) receptor (Homo sapiens (Human), UniProt P29275). Description: ADORA2B Receptor Binding Assay. Conditions: radioligand binding, membrane stock. An outline of the steps: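 Radioligand competition binding on human A2B receptor membranes, 1 h at room temperature, then filtration through BSA-presoaked GF/C filters and ³H counting by scintillation. Inhibition expressed as % of high control after background subtraction.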

Chain of Adenosine A2B (ADORA2B) receptor (P29275 whole entry): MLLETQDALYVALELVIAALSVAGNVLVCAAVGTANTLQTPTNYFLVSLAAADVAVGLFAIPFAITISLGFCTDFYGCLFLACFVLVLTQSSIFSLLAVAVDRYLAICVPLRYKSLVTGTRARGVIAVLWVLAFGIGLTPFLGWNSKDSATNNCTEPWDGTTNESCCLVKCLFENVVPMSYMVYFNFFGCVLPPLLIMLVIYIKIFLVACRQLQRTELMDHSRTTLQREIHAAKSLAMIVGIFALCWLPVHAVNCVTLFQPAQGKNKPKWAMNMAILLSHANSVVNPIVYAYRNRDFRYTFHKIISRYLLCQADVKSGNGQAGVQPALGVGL
Chain of Adenosine A2a (ADORA2A) receptor (P29274 whole entry): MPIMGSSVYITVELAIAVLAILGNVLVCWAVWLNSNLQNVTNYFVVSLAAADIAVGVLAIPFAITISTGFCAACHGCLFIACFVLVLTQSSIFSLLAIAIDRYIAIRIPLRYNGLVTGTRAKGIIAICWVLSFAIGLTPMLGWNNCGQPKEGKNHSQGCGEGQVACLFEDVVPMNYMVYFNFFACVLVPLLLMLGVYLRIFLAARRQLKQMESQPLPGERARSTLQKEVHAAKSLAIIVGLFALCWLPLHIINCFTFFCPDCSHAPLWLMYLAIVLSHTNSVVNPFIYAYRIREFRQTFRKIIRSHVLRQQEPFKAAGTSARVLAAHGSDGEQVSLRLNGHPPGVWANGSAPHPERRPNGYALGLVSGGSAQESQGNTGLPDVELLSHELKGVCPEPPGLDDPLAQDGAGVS

In general, IC50 refers to the concentration needed to halve the response being measured. As to `Cc1nc2cc(NC(=O)OC(C)(C)C)nc(-c3ccc(S(=O)(=O)N(C)C)cc3)n2n1` [Compound 118, tert-butyl N-[5-[4-(dimethylsulfamoyl)phenyl]-2-methyl-[1,2,4]triazolo[1,5-c]pyrimidin-7-yl]carbamate], the IC50 in experiment [1] and in experiment [2] was above 1 µM in each case.
Turning to `Cc1nc2cc(N)nc(-c3ccc(S(=O)(=O)N(C)C)cc3)n2n1` [Compound 119, 4-(7-amino-2-methyl-[1,2,4]triazolo[1,5-c]pyrimidin-5-yl)-N,N-dimethylbenzenesulfonamide], the IC50 in experiment [1] and in experiment [2] was above 1 µM throughout.
As to `Cc1nc2c(nc(-c3ccc(C)o3)n3nc(C(C)C)nc23)[nH]1` [Compound 120, 2-methyl-5-(5-methylfuran-2-yl)-8-propan-2-yl-3H-[1,2,4]triazolo[5,1-f]purine], the figures for the IC50 in experiment [1] and in experiment [2] were below 0.01 µM and 0.01 to 0.1 µM, respectively.
On to `Cc1ccc(-c2nc3[nH]ncc3c3nc(C(C)C)nn23)o1` [Compound 121, 7-(5-methylfuran-2-yl)-4-propan-2-yl-3,5,6,8,10,11-hexazatricyclo[7.3.0.0^2,6]dodeca-1(9),2,4,7,11-pentaene], for which the values for the IC50 in experiment [1] and in experiment [2] were below 0.01 µM and 0.01 to 0.1 µM, respectively.
With `CC(=O)Nc1cc2nc(C3CNC3)nn2c(-c2ccco2)n1` [Compound 122, N-[2-(azetidin-3-yl)-5-(furan-2-yl)-[1,2,4]triazolo[1,5-c]pyrimidin-7-yl]acetamide], the values for the IC50 in experiment [1] and in experiment [2] were 0.1 to 1 µM and above 1 µM, respectively.
With `O=C(Nc1cc2nc(C3CNC3)nn2c(-c2ccco2)n1)C1CC1` [Compound 123, N-[2-(azetidin-3-yl)-5-(furan-2-yl)-[1,2,4]triazolo[1,5-c]pyrimidin-7-yl]cyclopropanecarboxamide], the IC50 in experiment [1] was 0.01 to 0.1 µM; in experiment [2], above 1 µM.
The corresponding values for `Cc1nc2cc(NC(=O)OC(C)(C)C)nc(-c3ccc(S(=O)(=O)O)cc3)n2n1` [Compound 124, 4-[2-methyl-7-[(2-methylpropan-2-yl)oxycarbonylamino]-[1,2,4]triazolo[1,5-c]pyrimidin-5-yl]benzenesulfonic acid] are 0.1 to 1 µM and above 1 µM.
As to `Cc1nc2cc(NC(=O)C3CC3)nc(-c3ccc(S(=O)(=O)O)cc3)n2n1` [Compound 125, 4-[7-(cyclopropanecarbonylamino)-2-methyl-[1,2,4]triazolo[1,5-c]pyrimidin-5-yl]benzenesulfonic acid], the IC50 in experiment [1] and in experiment [2] was above 1 µM throughout.
Consider `CC(=O)Nc1cc2nc(C(F)F)nn2c(-c2ccc(C)o2)n1` [Compound 126, N-[2-(difluoromethyl)-5-(5-methylfuran-2-yl)-[1,2,4]triazolo[1,5-c]pyrimidin-7-yl]acetamide], for which the IC50 in experiment [1] and in experiment [2] was below 0.01 µM each time.
`CC(=O)Nc1cc2nc(CF)nn2c(-c2ccc(C)o2)n1` [Compound 127, N-[2-(fluoromethyl)-5-(5-methylfuran-2-yl)-[1,2,4]triazolo[1,5-c]pyrimidin-7-yl]acetamide]: the IC50 in experiment [1] and in experiment [2] was below 0.01 µM each time.
As for `Cc1nc2cc(NC(=O)C3CC3)nc(-c3ccc(F)c(F)c3)n2n1` [Compound 128, N-[5-(3,4-difluorophenyl)-2-methyl-[1,2,4]triazolo[1,5-c]pyrimidin-7-yl]cyclopropanecarboxamide], the IC50 in experiment [1] fell in the range of 0.01 to 0.1 µM; in experiment [2] it was 0.1 to 1 µM.
Taken in the same sequence, the figures for `CC(=O)Nc1cc2nc(C)nn2c(-c2ccc(F)c(F)c2)n1` [Compound 129, N-[5-(3,4-difluorophenyl)-2-methyl-[1,2,4]triazolo[1,5-c]pyrimidin-7-yl]acetamide] were 0.01 to 0.1 µM and above 1 µM.
Taken in the same sequence, the figures for `Cc1nc2cc(N)nc(-c3ccc(F)c(F)c3)n2n1` [Compound 130, 5-(3,4-difluorophenyl)-2-methyl-[1,2,4]triazolo[1,5-c]pyrimidin-7-amine] were 0.01 to 0.1 µM and 0.1 to 1 µM.
